Reference: patent publication US6492344B1, “Syndecan enhancer element and syndecan stimulation of cellular differentiation” (Biotie Therapies Corp., priority 1993, dated 2002)
“Also recorded” adds a separate entry of the source.

Experiments:
syndecan-1 gene = experiment: Nuclear run-off of syndecan-1 transcription in 3T3NIH cells; assay type: cell-based, mouse
Method: The same cells were exposed to 10 ng/ml of FGF-2 for 4 hours and 24 hours with or without exposure to FGF (Control) followed by the isolation of nuclei for the run-off experiment. c-jun or nur transcription was used as a positive control and β-actin as a loading control. In nuclei isolated 4 hours after FGF exposure the level of transcription of the syndecan-1 gene was elevated as were the levels for c-jun and nur as positive controls.

[1] = tested on: FGF-inducible Response Element (FiRE); experiment: FiRE / Syn Prom CAT reporter in MCA3D keratinocytes; assay type: cell-based; details: MCA3D mouse keratinocytes transfected with FiRE construct
Method: The cells used for proximal promoter constructs were 3T3 NIH, S115 (either hormone-treated or not) and nMuMG cells. For enhancer constructs we used 3T3 NIH cells grown in 2% CMS medium and MCA 3D cells grown in Ham's medium. 3T3 NIH cells were also used to test the effect of growth factors in 2% CMS medium with 10 ng/ml FGF-2 and 2ng/ml TGFβ-1. MCA 3D cells were used to test the effect of 10 ng/ml KGF.
FiRE is Induced Selectively by FGF-7 in Keratinocytes. The ability of FiRE to enhance transcription was tested in the mouse keratinocyte cell line MCA3D (Kuliz-Martin et al., Carcinogenesis 4:1367-1377 (1983)). MCA3D cells were transfected as described supra for mouse NIH3T3 cells. Following transfection, the cells were treated with fetal calf serum, PDGF, FGF-1, FGF-2, and FGF-7 as described supra for the NIH3T3 cells.

FGF-2: Basic fibroblast growth factor (FGF-2 or bFGF); recombinant human
transcription of syndecan-1 (run-off) (syndecan-1 gene; after 24 hours of 10 ng/ml FGF-2): not detectable | level of transcription of the syndecan-1 gene (run-off) (syndecan-1 gene; nuclei isolated 4 hours after 10 ng/ml FGF exposure): elevated | FiRE activation [1]: failed to activate FiRE; also recorded: only slightly activated FiRE
